Source: the NIST ThermoML archive (doi:10.1021/je900333c)
Numbers after ± are expanded uncertainties.

Assay: relative permittivity at zero frequency (dimensionless); mn = molality of the nth substance listed, in mol/kg
Details: 101 kPa, Liquid, dielectric constant meter

## NCC(=O)O [2-aminoacetic acid] + O
278.15 K, m1 = 0.1
  relative permittivity at zero frequency: 88.4 ± 0.2
278.15 K, m1 = 0.15
  relative permittivity at zero frequency: 89.5 ± 0.2
278.15 K, m1 = 0.2
  relative permittivity at zero frequency: 90.6 ± 0.2
278.15 K, m1 = 0.25
  relative permittivity at zero frequency: 91.6 ± 0.2
278.15 K, m1 = 0.3
  relative permittivity at zero frequency: 92.8 ± 0.2
283.15 K, m1 = 0.1
  relative permittivity at zero frequency: 86.4 ± 0.2
283.15 K, m1 = 0.15
  relative permittivity at zero frequency: 87.5 ± 0.2
283.15 K, m1 = 0.2
  relative permittivity at zero frequency: 88.6 ± 0.2
283.15 K, m1 = 0.25
  relative permittivity at zero frequency: 89.6 ± 0.2
283.15 K, m1 = 0.3
  relative permittivity at zero frequency: 90.7 ± 0.2
288.15 K, m1 = 0.1
  relative permittivity at zero frequency: 84.5 ± 0.2
288.15 K, m1 = 0.15
  relative permittivity at zero frequency: 85.6 ± 0.2
288.15 K, m1 = 0.2
  relative permittivity at zero frequency: 86.6 ± 0.2
288.15 K, m1 = 0.25
  relative permittivity at zero frequency: 87.6 ± 0.2
288.15 K, m1 = 0.3
  relative permittivity at zero frequency: 88.7 ± 0.2
293.15 K, m1 = 0.1
  relative permittivity at zero frequency: 82.6 ± 0.2
293.15 K, m1 = 0.15
  relative permittivity at zero frequency: 83.6 ± 0.2
293.15 K, m1 = 0.2
  relative permittivity at zero frequency: 84.6 ± 0.2
293.15 K, m1 = 0.25
  relative permittivity at zero frequency: 85.6 ± 0.2
293.15 K, m1 = 0.3
  relative permittivity at zero frequency: 86.5 ± 0.2
298.15 K, m1 = 0.1
  relative permittivity at zero frequency: 80.7 ± 0.2
298.15 K, m1 = 0.15
  relative permittivity at zero frequency: 81.7 ± 0.2
298.15 K, m1 = 0.2
  relative permittivity at zero frequency: 82.6 ± 0.2
298.15 K, m1 = 0.25
  relative permittivity at zero frequency: 83.5 ± 0.2
298.15 K, m1 = 0.3
  relative permittivity at zero frequency: 84.3 ± 0.2
303.15 K, m1 = 0.1
  relative permittivity at zero frequency: 78.8 ± 0.2
303.15 K, m1 = 0.15
  relative permittivity at zero frequency: 79.7 ± 0.2
303.15 K, m1 = 0.2
  relative permittivity at zero frequency: 80.6 ± 0.2
303.15 K, m1 = 0.25
  relative permittivity at zero frequency: 81.4 ± 0.2
303.15 K, m1 = 0.3
  relative permittivity at zero frequency: 82.1 ± 0.2
308.15 K, m1 = 0.1
  relative permittivity at zero frequency: 76.9 ± 0.2
308.15 K, m1 = 0.15
  relative permittivity at zero frequency: 77.8 ± 0.2
308.15 K, m1 = 0.2
  relative permittivity at zero frequency: 78.5 ± 0.2
308.15 K, m1 = 0.25
  relative permittivity at zero frequency: 79.2 ± 0.2
308.15 K, m1 = 0.3
  relative permittivity at zero frequency: 79.7 ± 0.2
313.15 K, m1 = 0.1
  relative permittivity at zero frequency: 75 ± 0.2
313.15 K, m1 = 0.15
  relative permittivity at zero frequency: 75.8 ± 0.2
313.15 K, m1 = 0.2
  relative permittivity at zero frequency: 76.4 ± 0.2
313.15 K, m1 = 0.25
  relative permittivity at zero frequency: 77 ± 0.2
313.15 K, m1 = 0.3
  relative permittivity at zero frequency: 77.2 ± 0.2
